Results from patent US9645154B2, “Method for detecting cancer cell” (ARKRAY, Inc., priority 2010, dated 2017).

How the values were obtained:
Assay type in all cases: cell-based
[1] = tested on: human gastric cancer cells (SNU-1); assay: Labeled sugar incorporation, fluorescence microscopy image analysis (positive rate); conditions: threshold value 490
Text: (§1) In accordance with the conventional method, cultured human fibrosarcoma cell line HT1080 (DS Pharma Biomedical Co., Ltd.) was harvested with trypsin (Invitrogen). The human gastric cancer cell line SNU-1 (ATCC), which is a suspension cell line, was directly harvested without any trypsin treatment. The cell suspension of the harvested cancer cells was centrifuged, and the supernatant was removed. The cells were resuspended with Dulbecco's PBS (−) (Nissui Pharmaceutical Co., Ltd.) and centrifuged, and the supernatant was removed again.
The number of the cells was counted for each cell line using a hemacytometer in accordance with the conventional method, and then 10^5 to 10^6 cells per sample (cell suspension) was aliquoted. Each of the sample was centrifuged to remove the supernatant. Subsequently, 2-NBDG (Wako Pure Chemical Industries, Ltd.; at the final concentration given in Table 3 or 4) dissolved in Dulbecco's PBS (−) was added thereto, and the cells were suspended well. […] The image was captured with a fluorescence microscope (Nikon Corp.) using B-2A filter combination (Nikon Corp.). […] EX (excitation wavelength): 475±15 nm, DM: 505 nm or longer, BA (fluorescence wavelength) 520 nm or longer.
(§2) The acquired images were analyzed using an image analysis software NIS-ELEMENTS (trade name, Nikon Corp.) to evaluate the fluorescence intensity of the cell. […]

[2] = tested on: human gastric cancer cells (SNU-1); assay: Aminolevulinic acid (with FeCl2 and ascorbic acid) labeling, fluorescence microscopy image analysis (positive rate); conditions: hemolyzed, 0.3 mM, 60 min, 37° C., threshold value 198
Text: as §1, with “prostate cancer” for “fibrosarcoma”, “PC3” for “HT1080”, “(+)” for “(−)”
The number of the cells was counted using a hemacytometer in accordance with the conventional method, and then 10^5 to 10^6 cells per sample (cell suspension) was aliquoted. The sample was centrifuged to remove the supernatant. […] The image was captured with a fluorescence microscope (Nikon Corp.).
The wavelengths for the fluorescence filter set: EX (excitation wavelength): 402±7.5, DM: 430 or longer, BA (fluorescence wavelength): 625±15.
as §2

[3] = tested on: human fibrosarcoma cell HT-1080; assay: Aminolevulinic acid labeling with or without iron ion and reducing agent (positive rate); conditions: 0.3 mM, 37° C., 60 min
Text: In accordance with the conventional method, human fibrosarcoma cell HT-1080 (DS Pharma Biomedical Co., Ltd.) and normal human dermal fibroblast cell NHDF (Lonza) in culture were harvested with trypsin (Invitrogen). The cell suspension of the harvested cancer cells was centrifuged, and the supernatant was removed. The cells were then resuspended with Dulbecco's PBS (+) (Nissui Pharmaceutical Co., Ltd.) and centrifuged, and the supernatant was removed again.
The number of the cells was counted using a hemacytometer in accordance with the conventional method, and then 10^5 to 10^6 cells per sample (cell suspension) was aliquoted. The sample was centrifuged to remove the supernatant. In the case an iron ion and a reducing agent were added, 0.3 mM of aminolevulinic acid (trade name: 5-AMINOLEVULINATE HYDROCHLORIDE, Cosmo Bio Co., Ltd.), 0.3 mM of FeCl2 and 0.3 mM of ascorbic acid dissolved in Dulbecco's PBS (+) were added thereto, and the cells were suspended well. In the case an iron ion and a reducing agent were not added, 0.3 mM of aminolevulinic acid dissolved in Dulbecco's PBS (+) was added singly, and the cells were suspended well. Each of the mixture was then allowed to react at 37° C. for 60 minutes. […]
The fluorescence filter set: EX (excitation wavelength) 402±7.5, DM 430 or longer, BA (fluorescence wavelength) 625±15.

Compound | Positive rate (Cancer cells) ([1]; hemolyzed, 10 mM, 5 min, 23° C.) [%] | Positive rate (Cancer cells) ([1]; single, Glucose conc.: 1 mM, Temp.: 37° C., Time: 30 min) [%] | Positive rate (Cancer cells) [2] [%] | Positive rate (Fibroblast sarcoma cell (HT-1080)) ([3]; Ascorbic acid 0, FeC12 0) [%] | Positive rate (Fibroblast sarcoma cell (HT-1080)) ([3]; Ascorbic acid 0.3 mM, FeC12 0.3 mM) [%]
O=[N+]([O-])c1ccc(N[C@H]2C(O)O[C@H](CO)[C@@H](O)[C@@H]2O)c2nonc12 (stereo partly drawn) [2-NBDG, 2-[N-(7-nitrobenz-2-oxa-1,3-diazol-4-yl)amino]-2-deoxy-D-glucose] | 50.0 | 50.0 | – | – | –
NCC(=O)CCC(=O)O [aminolevulinic acid, 5-amino-4-oxopentanoic acid] | – | – | 81.6 | 97.3 | 79.3
